# From US10058579B2, “Dietary supplements containing extracts of cinnamon and methods of using same to promote enhanced sirtuin, cell and telomere integrity” (IN Ingredients, Inc., priority 2010, dated 2018)
# System: SIRT family mRNA expression
# Test: sirtuin (SIRT family) mRNA expression in rat primary enterocytes, quantitative PCR
# Type: cell-based
# Conditions: 2 μg/ml; enterocytes of chow-fed rats; FIG. 2
# Source text: The baseline value for the effects of a high fructose diet on SIRT family mRNA expression is established. The experimental protocols parallel those of Firestein, R., et al., PLoS ONE, 2008; 3(4): e2020. doi:10.1371/journal.pone.0002020 except using Wistar rats. The animals fed ad libitum with water and either a standard chow diet or a high fructose diet. Primary enterocytes are obtained from animals (6 months of age) following sacrifice and rapid harvest of the intestine. The isolated intestine is thoroughly flushed with ice cold PBS.
# Total RNA is isolated from primary enterocyte tissue obtained as above, adipose tissue (obtained by biopsy), or liver (obtained by biopsy) using TR1 reagent (Applied Biosystems, Austin, Tex.), according to the manufacturer's guidelines. The resulting total RNA is subjected to DNase treatment using RNase-free DNase (Ambion). The purity of isolated RNA is measured by a NanoDrop spectrophotometer. A set concentration of RNA is reverse transcribed into cDNA using SuperScript II RT, and quantitative PCR is performed on ABI Prism 7500 Sequence Detection System (Applied Biosystems, Carlsbad, Calif.) using SYBR Green PCR Master Mix (Applied Biosystems, Carlsbad, Calif.).
# The level of sirtuin mRNA expression is assayed following exposure of rat primary enterocytes to the anthocyanin delphinidin. […]
smiles,measurement,value
Oc1cc(O)c2cc(O)c(-c3cc(O)c(O)c(O)c3)[o+]c2c1 [delphinidin],increase of sirtuin gene expression as measured by mRNA levels over control,2-3 fold
